Measured values taken from patent US9145375B2, “Quinazolinone compounds” (PRANA BIOTECHNOLOGY LIMITED, priority 2008, dated 2015).
Like-named read-outs stand apart in the source and are kept apart here.

How the values were obtained:
[1] = Plasma Protein Binding, human; type: in vitro ADME
[2] = Metabolism in hepatocytes (predicted EH), rat; type: in vitro ADME
CYP2D6 = target: T1, CYP2D6 (Homo sapiens, UniProt P10635); assay: CYP450 inhibition, specific substrate approach in human liver microsomes: CYP2D6; type: in vitro ADME
T1 construct: using a specific substrate approach in human liver microsomes; from tissue; host or cells: human liver microsomes
Protocol: CYP450 Isoform Inhibition Using a Specific Substrate Approach
The present study is a “Tier 2” screen to assess potential enzyme inhibition at a test compound concentration of 20 μM using a specific substrate approach in human liver microsomes.
The substrate specific enzyme inhibition study relies on the formation of a metabolite that is mediated by a specific CYP450 isoform using human liver microsomes. In the current study, the following reactions were monitored to assess interactions with specific CYP450 isoforms. A known inhibitor of each isoform was included in each assay as a positive control. The following IC50 values have been reported in the literature using equivalent assay conditions for each CYP450 isoform:
The reaction was initiated by the addition of an NADPH-regenerating system and was quenched by the addition of acetonitrile prior to determining the concentration (and apparent rate of formation) of the specific metabolite by LC/MS.
The IC50 was deemed to be the concentration at which there was a 50% reduction in the amount of metabolite formed, relative to the maximal extent of formation.

[3] = Metabolism in hepatocytes (predicted EH), human; type: in vitro ADME
[4] = system: 6-OHDA lesion of the SNpc; assay: Parkinson's disease in vivo: 6-OHDA model; parameters: species or system mouse; settings: 6-OHDA lesioned mice
Protocol: Parkinson's Disease In Vivo Technique: 6-OHDA Model
Preparation of the toxin 6-OHDA (1.65 mg/mL, Sigma Cat# H-4381):
6-OHDA toxin is dissolved in ascorbic acid solution (0.2 mg/mL in dH2O), store in dark on ice. To increase the speed of anaesthesia and reduce stress to the mouse, there is premedication with atropine (0.5 mg/kg) and xylazine (10 mg/kg) is injected subcutaneously via a 27 gauge needle).
To Prepare the Lesion Needle to Inject 6-OHDA:
PBS is sucked up into the line (ensure no air bubbles) with up to […] in a Hamilton syringe. Syringe is placed the in the Kd Scientific syringe pump and secured. Pump is turned the on and syringe is loaded into the pump. Pump volume is set at […] and the rate is set at 0.5 ml/min. The lesion needle is positioned so that the bevelled (eye) of the needle is at a 45° angle from the midline and tightened to secure the needle. Pump is run and checked for fluid coming out.
3-4% isoflurane is carried by oxygen to induce anaesthesia and 1-2% for maintenance of anaesthesia. Animal is placed in small induction chamber and subjected to a few minutes of 4% isoflurane in oxygen at a flow rate of approx 1 l/min. Mouse is then placed in stereotaxic frame. The anaesthetic tube is disconnected from induction box and isoflurane reduced to 2% conc and oxygen flow rate to approx […]. Tube is connected to the nose piece attached to stereotaxic frame so that anaesthetic gas can be constantly administered during surgery. LHS ear bar is screwed at approx 3 mm. RHS ear bar is screwed in until there is no sideways head movement (about 5 mm). Front incisors are placed over the mouthguard and put nose-guard on (3 mm below 0). Mouthguard is screwed into place and ensured the top of the mouse's head is level (re-check this once the animal's skull is exposed).
Using a scalpel (size 4, blade 22), the scalp is cut down the centreline of the mouse's head to expose the skull. Typically 10-15 mm. The surface of the skull is dried with a cotton bud. Drill hole is measured with a ruler 3 mm posterior from Bregma and between 1 and 1.5 mm laterally from the centre line. The skull is drilled into this position until the surface of the brain is exposed.
6-OHDA is sucked up to fill approximately 15 cm of the line and the syringe. Fluid is ensured to be coming out of needle. The bevelled of the needle is aligned over the centreline where Bregma crosses, viewed by Motik dissecting microscope. The needle is ensured to be a few mm above the skull before positioning. Frame is moved 2.9 mm in a posterior direction and 1.1 mm (11 small notches) laterally to the right (for RHS injections) from the starting coordinates at Bregma. Needle is moved down until the tip of the needle just touches the surface of the brain.
Needle is lowered to the required depth of 4.6 mm and brain is allowed to settle for 2 min.
[…] of toxin is injected into the RHS SNpc, taking 4 min. 2 min is allowed to ensure the toxin disperses. Needle is withdrawn and antiseptic applied to the wound, with suture or superglue to close.
Mouse is wrapped in a piece of tissue and placed in a warm recovery box (on a heat pad) with water bottles (50 ml tubes) warmed to 50 C. Panadol® syrup is added to mouse's water bottle.
Rotation is recorded by the Computer based Rotacount system—(Columbus Instruments, Columbus, Ohio, USA). The system comprised of 8 bowls with sensors connected to a computer which measures incremental turns (90 degrees and full turns 360 degrees) either clockwise or counter clockwise. The sensors are positioned above the centre of each bowl about 30 cm above each. Tubing and a thin empty plastic pipette are attached so that the sensor is now extended to with a few cm of the base of the bowl.
Mice are placed individually into the eight bowls. Mice are secured to the pipettes via a cable tie and tape. […]

T1 sequence (P10635 whole entry): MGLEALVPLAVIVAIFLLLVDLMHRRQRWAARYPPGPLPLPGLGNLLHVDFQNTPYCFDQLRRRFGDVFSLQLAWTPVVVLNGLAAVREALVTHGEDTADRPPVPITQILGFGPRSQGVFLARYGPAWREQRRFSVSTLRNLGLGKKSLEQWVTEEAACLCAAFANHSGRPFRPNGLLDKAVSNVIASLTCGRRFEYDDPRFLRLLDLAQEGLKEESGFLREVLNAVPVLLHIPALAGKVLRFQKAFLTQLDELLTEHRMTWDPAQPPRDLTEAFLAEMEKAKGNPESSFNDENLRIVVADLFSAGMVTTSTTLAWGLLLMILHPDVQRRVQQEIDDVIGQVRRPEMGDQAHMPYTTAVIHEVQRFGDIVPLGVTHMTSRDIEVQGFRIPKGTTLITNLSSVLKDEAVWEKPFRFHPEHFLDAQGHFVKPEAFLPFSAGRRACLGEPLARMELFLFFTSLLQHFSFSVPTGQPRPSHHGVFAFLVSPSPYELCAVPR

| SMILES | fraction unbound [1] | Metabolism (Predicted EH), Hepatocytes: Rat [2] | Metabolism (Predicted EH), Hepatocytes: Human [3] | IC50 (CYP2D6) [µM] | Behaviour (Rotation) % SSV ([4]; SSV = 0%, dose not given) [%] | Behaviour (Rotation) total turns/h ± SD ([4]; dose not given) | SN cell counts % of SSV (SSV = 0%) ([4]; dose not given) [%] | SN cell counts (cells ± SD) ([4]; dose not given) | further results |
| --- | --- | --- | --- | --- | --- | --- | --- | --- | --- |
| CNCc1nc2c(O)c(Cl)cc(Cl)c2c(=O)n1C [Compound F4161] | 0.043 | Rat = 0.29 | 0.20 |  |  |  |  |  | IC50 (CYP2D6; human, liver microsomes, probe dextromethorphan 3 μM): 40 µM |
| CN(C)Cc1nc2c(O)c(Cl)cc(Cl)c2c(=O)n1CC1CC1 [Compound F4267] | 0.005 | Rat = 0.45 | 0.44 | 7.4 |  |  |  |  | Behaviour (Rotation) % SSV ([4]; 5 mg kg): 7.01%; Behaviour (Rotation) total turns/h ± SD ([4]; 5 mg kg): (240.89 ± 171.99) turns/h; SN cell counts % of SSV (SSV = 0%) ([4]; 5 mg kg): 55.79%; SN cell counts (cells ± SD) ([4]; 5 mg kg): (2992.00 ± 883.84) cells; Behaviour (Rotation) % SSV ([4]; 15 mg kg): −23.39%; Behaviour (Rotation) total turns/h ± SD ([4]; 15 mg kg): (319.67 ± 171.05) turns/h; SN cell counts % of SSV (SSV = 0%) ([4]; 15 mg kg): 77.86%; SN cell counts (cells ± SD) ([4]; 15 mg kg): (3415.96 ± 498.05) cells; Behaviour (Rotation) % SSV ([4]; 30 mg kg): 36.33%; Behaviour (Rotation) total turns/h ± SD ([4]; 30 mg kg): (164.93 ± 110.90) turns/h; SN cell counts % of SSV (SSV = 0%) ([4]; 30 mg kg): 110.44%; SN cell counts (cells ± SD) ([4]; 30 mg kg): (4041.70 ± 799.55) cells |
| CCn1c(CN(C)C)nc2c(O)c(Cl)cc(Cl)c2c1=O.Cl [Compound F4268] | 0.029 | Rat = 0.30 | 0.28 | > 20 | 56.04 | (114.56 ± 71.86) turns/h | 93.96 | (3725.04 ± 842.65) cells |  |
| CN(C)Cc1nc2c(O)c(Cl)cc(Cl)c2c(=O)n1C [Compound F4269, 5,7-Dichloro-2-(dimethylamino)methyl-8-hydroxy-3-methylquinazolin-4(3H)-one] | 0.054 to 0.059 | Rat = 0.35 | 0.38 | > 30 | 48.85 | (132.50 ± 81.93) turns/h | 68.91 | (3243.93 ± 724.98) cells |  |
| CCN(CC)Cc1nc2c(O)c(Cl)cc(Cl)c2c(=O)n1CC1CC1 [Compound F4385] | 0.008 to 0.013 | Rat = 0.35 | 0.55 | 5.1 | 49.98 | (129.57 ± 16.26) turns/h | 56.81 | (3011.56 ± 502.27) cells |  |
| C#CCN(C)Cc1nc2c(O)c(Cl)cc(Cl)c2c(=O)n1CC1CC1 [Compound F4387] |  |  |  |  | 24.51 | (195.57 ± 114.48) turns/h | 46.90 | (2821.24 ± 940.22) cells |  |
| CCNCc1nc2c(O)c(Cl)cc(Cl)c2c(=O)n1CC [Compound F4495] | 0.023 to 0.024 | Rat = 0.35 | 0.22 | 9.5 | 18.06 | (212.29 ± 101.41) turns/h | 57.22 | (3019.56 ± 318.79) cells |  |
| Br.CCNCc1nc2c(O)c(Cl)cc(Cl)c2c(=O)n1C [Compound F4496] |  | Rat = 0.35 | 0.43 | > 30 | 36.62 | (164.20 ± 100.40) turns/h | 95.68 | (3758.11 ± 510.98) cells |  |
